According to patent US9663764B2, “Generation of cardiomyocytes from human pluripotent stem cells” (Wisconsin Alumni Research Foundation, priority 2011, dated 2017):

Legend:
Format in all cases: cell-based, human
H9 hESCs = experiment: Activin A/BMP4 directed cardiac differentiation with GSK3 inhibitor pretreatment, cTnT flow cytometry; conditions: for contracting cardiomyocytes generated: Activin A and BMP4 protocol without GSK3 inhibitor, H9 cells
Description: (§1) Cardiac directed differentiation using Activin A and BMP4: hPS cells maintained on Matrigel® in mTeSR1 were dissociated into single cells with Accutase (Invitrogen) at 37° C. for 5 min and then seeded onto a Matrigel®-coated cell culture dish at 100,000 cell/cm^2 in mTeSR1 supplemented with 5 μM ROCK inhibitor (Y-27632, Stemgent) (day −5). Cells were cultured in mTeSR1, changed daily. At day 0, cells were treated with 100 ng/ml Activin A (R&D) in RPMI/B27-insulin. After 24 hr, the medium was changed to RPMI/B27-insulin supplemented with 5 ng/ml BMP4 (R&D) for another 4 days. At day 5, the medium was changed with RPMI/B27-insulin. At day 7 the cells were transferred to RPMI/B27, and medim changed every 3 days. When using GSK3 inhibitors to stimulate differentiation, cells were cultured in mTeSR1 containing BIO or CHIR99021 from day −3 to day 0.
(§2) Flow Cytometry: Cells were dissociated into single cells and then fixed with 1% paraformaldehyde for 20 min at room temperature and stained with primary and secondary antibodies in PBS plus 0.1% Triton X-100 and 0.5% BSA. For the cell proliferation assay, a 17-hour pulse of BrdU was performed to identify dividing cardiomyocytes (Zhang et al., Circ. Res. 104, e30-41 (2009)). Data were collected on a FACSCaliber flow cytometer (Beckton Dickinson) and analyzed using FlowJo.
Undifferentiated H9 hESCs were cultured in the presence of 0-8 μM CH for three days prior to EB formation. EBs were cultured in suspension for 4 days before transferring to 0.1% gelatin coated plates. […] The inventors also applied the GSK3 inhibitors CH and BIO to undifferentiated H9 hESCs three days prior to directed differentiation to cardiomyocytes via Activin A and BMP4.

IMR90C4 iPSC line = experiment: Activin A/BMP4 directed cardiac differentiation with BIO pretreatment, cTnT flow cytometry; conditions: three days of BIO pretreatment prior to Activin A and BMP4; day 15
Description: as §1
as §2, with “FlowJo. […]” for “FlowJo.”

19-9-11 ishcat-2 cells = experiment: cTnT+ cell generation with Activin A and BMP4 signaling antagonists during CH induction; conditions: dox at 48 hours
Description: (§3) cardiac directed differentiation via small molecules: Cells were dissociated and plated as described in the Activin/BMP4 protocol. When hPS cells maintained on Matrigel® or Synthemax plates achieved confluence, cells were treated with CH in RPMI/B27-insulin for 24 hr (day 0 to day 1). The medium was changed to RPMI/B27-insulin, followed by 2 μg/ml dox treatment at different times between day 1 and day 5 for transgenic cell lines. For genetically unmodified lines, 5 μM IWP2 (Tocris) or IWP4 (Stemgent) was added at day 3 and removed during the day 5 medium change. Cells were maintained in the RPMI/B27 starting from day 7, with the medium changed every 3 days.
as §2, with “For the cell proliferation assay, a 17-hour pulse of BrdU was performed to identify dividing cardiomyocytes (Zhang et al., Circ. Res. 104, e30-41 (2009)).” left out
To determine whether canonical Wnt signaling requires TGFβ superfamily signaling to induce cardiogenesis, the inventors quantified cTnT+ cell generation in 19-9-11 ishcat-2 cells when Activin A and BMP4 signaling antagonists were presented during the first 24 hr of cardiomyocyte induction with 12 μM CH. […]

[1] = test system: Smad1/5 and Smad2 phosphorylation in 19-9-11 ishcat cells; experiment: Smad1/5 and Smad2 phosphorylation, western blot; conditions: for Smad1/5 and Smad2 phosphorylation: 100 ng/ml Activin A at day 0 and 5 ng/ml BMP4 at day 1
Description: Western Blot Analysis: Cells were lysed in M-PER Mammalian Protein Extraction Reagent (Pierce) in the presence of Halt Protease and Phosphatase Inhibitor Cocktail (Pierce). Proteins were separated by 10% Tris-Glycine SDS/PAGE (Invitrogen) under denaturing conditions and transferred to a nitrocellulose membrane. After blocking with 5% milk in TBST, the membrane was incubated with primary antibody overnight at 4° C. The membrane was then washed, incubated with an anti-mouse/rabbit peroxidase-conjugated secondary antibody (1:1000, Cell Signaling) at room temperature for 1 hr, and developed by SuperSignal chemiluminescence (Pierce).
To determine whether canonical Wnt signaling requires TGFβ superfamily signaling to induce cardiogenesis, the inventors quantified cTnT+ cell generation in 19-9-11 ishcat-2 cells when Activin A and BMP4 signaling antagonists were presented during the first 24 hr of cardiomyocyte induction with 12 μM CH. All samples were treated with dox at 48 hours. […] To further investigate the role of TGFβ superfamily signaling in Wnt pathway-mediated cardiogenesis the inventors assessed Smad1/5 and Smad2 phosphorylation, downstream of BMP4 and Activin A signaling respectively. As expected, substantial Smad1/5 and Smad2 phosphorylation was detected in cells that had been treated with Activin A and BMP4 (FIGS. 9B and 10A).

19-9-11 iPSCs = experiment: Cardiac directed differentiation via small molecules on Matrigel, cTnT/MF20 flow cytometry; conditions: for cTNT+ or MF20+ cells: 12 μM CH at day 0, then 5 μM Wnt inhibitor at day 3, after 15 days
Description: as §3, §2
While shRNA inhibition of β-catenin provides specific and facile temporal regulation of canonical Wnt signaling, this method requires genetic modification of the hPS cell line which limits its potential clinical utility. The inventors next used the mechanistic insight these modified lines provided regarding the sufficiency of canonical Wnt signaling in cardiomyogenesis to develop a completely defined, growth factor free method of efficiently generating cardiomyocytes from unmodified hPS cell lines using small molecules. First, 19-9-11 iPSCs were maintained in mTeSR1 on Matrigel® for five days, and then the medium was switched to RPMI/B27-insulin containing 12 μM CH. IWP4 and IWP2, which prevent palmitylation of Wnt proteins by porcupine thereby blocking Wnt protein secretion and activity (Chen et al., Nat. Chem. Biol. 5:100-107 (2009)), were used to inhibit Wnt signaling. […] Similar to results obtained with the 19-9-11 ishcat-1 cell line, CH treatment of 19-9-11 cells alone only generated 16% cTNT+ or MF20+ cells after 15 days, while adding 5 μM IWP4 or IWP2 at day 3 increased this to 87% cTNT+ or MF20+ cells. […] In order to achieve fully defined culture conditions, Matrigel® was replaced with a defined peptide acrylate surface (Synthemax) during both hPS cell expansion and differentiation. […] Thus, optimization of canonical WNT signaling via stage-specific addition of small molecule agonists and antagonists produces high yields of functional cardiomyocytes in a completely defined, growth factor free culture system.

[2] = test system: 19-9-11 and IMR90C4 iPSCs; experiment: Cardiac directed differentiation via small molecules on Synthemax plates, cTnT/MF20 flow cytometry; conditions: 12 μM CH at day 0 and 5 μM IWP4 at day 3, day 15
Description: as §3, §2
While shRNA inhibition of β-catenin provides specific and facile temporal regulation of canonical Wnt signaling, this method requires genetic modification of the hPS cell line which limits its potential clinical utility. […]

## O=C1Nc2cc(Br)ccc2/C1=C1/Nc2ccccc2/C1=N\O [BIO]
H9 hESCs; GSK3 inhibitor (1 μM) 3 days prior to Activin A and BMP4, day 15, average
  cTNT-labeled cells: 50%
IMR90C4 iPSC line
  generation of cTNT-expressing cells: enhanced generation of cTNT-expressing cells in the IMR90C4 iPSC line in a dose-dependent manner

## NC(=O)c1ccc(-c2nc(-c3ccc4c(c3)OCO4)c(-c3ccccn3)[nH]2)cc1 [SB431542]
19-9-11 ishcat-2 cells; with 12 μM CH for first 24 hr, cTnT+ at day 15
  concentrations that completely blocked cardiomyocyte specification: greater than 2 μM
[1]; 12 μM CH plus SB431542
  Smad2 phosphorylation: diminished

## Cc1ccc2nc(NC(=O)CSc3nc4c(c(=O)n3-c3ccccc3)SCC4)sc2c1 [IWP2, N-(6-Methyl-2-benzothiazolyl)-2-[(3,4,6,7-tetrahydro-4-oxo-3-phenylthieno[3,2-d]pyrimidin-2-yl)thio]-acetamide]
19-9-11 iPSCs
  cTNT+ or MF20+ cells: 87%

## COc1ccccc1-n1c(SCC(=O)Nc2nc3ccc(C)cc3s2)nc2c(c1=O)SCC2 [IWP4, 2-(3,4,6,7-tetrahydro-3-(2-methoxyphenyl)-4-oxothieno[3,2-d]pyrimidin-2-ylthio)-N-(6-methylbenzo[d]thiazol-2-yl)acetamide]
19-9-11 iPSCs; 12 μM CH at day 0, IWP4 added at day 3
  IWP4 concentration giving optimal generation of cardiomyocytes: 5 µM
19-9-11 iPSCs
  cTNT+ or MF20+ cells: 87%
[2]
  cTNT+ or MF20+ cells: approximately 85%

## CC(C)Oc1ccc(-c2cnc3c(-c4ccnc5ccccc45)cnn3c2)cc1 [DMH1]
19-9-11 ishcat-2 cells; 0.2-1 μM DMH1 with 12 μM CH for first 24 hr, day 15
  percentage of cTnT+ cells: decreased the percentage of cTnT+ cells in a concentration-dependent manner
[1]; 12 μM CH plus DMH1
  Smad1/5 phosphorylation: strongly attenuated

B1: Activin A: growth factor (R&D) used at 100 ng/ml for directed cardiac differentiation (protein, UniProt P08476 311-426, looked up)
Inhibin beta A chain: GLECDGKVNICCKKQFFVSFKDIGWNDWIIAPSGYHANYCEGECPSHIAGTSGSSLSFHSTVINHYRMRGHSPFANLKSCCVPTKLRPMSMLYYDDGQNIIKKDIQNMIVEECGCS
modifications: Inhibin beta A chain
notes: growth factor (R&D) used at 100 ng/ml for directed cardiac differentiation
H9 hESCs
  contracting cardiomyocytes generated: very few contracting cardiomyocytes
[1]
  Smad1/5 and Smad2 phosphorylation: substantial

B2: BMP4: growth factor (R&D) used at 5 ng/ml for directed cardiac differentiation (protein, UniProt P12644 293-408, looked up)
Bone morphogenetic protein 4: SPKHHSQRARKKNKNCRRHSLYVDFSDVGWNDWIVAPPGYQAFYCHGDCPFPLADHLNSTNHAIVQTLVNSVNSSIPKACCVPTELSAISMLYLDEYDKVVLKNYQEMVVEGCGCR
H9 hESCs
  contracting cardiomyocytes generated: very few contracting cardiomyocytes
[1]
  Smad1/5 and Smad2 phosphorylation: substantial
